Measured values as given in patent USRE38761E1, “Styryl compounds which inhibit EGF receptor protein tyrosine kinase” (Yissum Research Development Company of the Hebrew …, priority 1987, dated 2005).
Where two headings read alike, the source gives them in different places.

Experiments:
[1] = target: T1, EGF receptor (Homo sapiens, UniProt P00533); assay: EGF-receptor kinase (PTK) activity inhibition on extracted EGF receptors, poly(GAT) substrate, Dixon analysis; format: biochemical; design: EGF receptors were prepared from A431 cells (obtained from the ATCC) and PTK activity of these receptors was assayed; endogenous in cells; host or cells: A431 cells (ATCC); conditions: EGF receptors from A431 cells; copoly Glu6Ala3Tyr1 substrate; analysis according to Dixon; read-out: Klnh, dissociation constant of the PTK-inhibitor complex
Experimental: The different KInh values were determined by the analysis according to Dixon.
EGF-receptor purification is based on the procedure of Yarden and Schlessinger. A431 cells are grown in 80 cm^2 bottles in confluency (2×10^7 cells per bottle). The cells are washed twice with PBS and harvested with PBS containing 1.0 mmol EDTA (1 hour at 37° C.), and centrifuged at 600 g for 10 minutes. The cells are solubilized in 1 ml per 2×10^7 cells of cold solubilization buffer (50 mmol Hepes buffer, pH 7.6, 1% Triton X-100, 150 mmol NaCl, 5 mmol EGTA, 1 mmol PMSF, 50 μg/ml aprotinin, 25 mmol benzamidine, 5 μg/ml leupeptin, and 10 μg/ml soybean trypsin inhibitor) for 20 minutes at 4° C. After centrifugation at 100000g for 30 minutes, the supernatant is loaded onto a WGA-agarose column (100 μl of packed resin per 2×10^7 cells) and shaken for 2 hours at 4° C. The unabsorbed material is removed and the resin washed twice with HTN buffer (50 mmol Hepes, pH 7.6, 0.1% Triton X-100, 150 mmol NaCl), twice with HTN buffer containing 1 M NaCl, and twice with HTNG buffer (50 mmol Hepes, pH 7.6, 0.1% Triton X-100, 150 mmol NaCl, and 10% glycerol). The EGF receptor is eluted batchwise with HTNG buffer containing 0.5 M N-acetyl-D-glucosamine (200 μl per […] cells). The eluted material is stored in aliquots at −70° C. and diluted before use with TMTNG buffer (50 mmol Tris-Mes buffer, pH 7.6, 0.1% Triton X-100, 150 mmol NaCl, 10% glycerol).
The concentration of EGF in the assay is 300 nM in a final volume of 40 μl. After 5, 10 or 20 minutes, aliquots of 25 μl are applied onto Whatman 3-mm paper cuttings, which are then soaked in cold 10% TCA containing 0.01 M sodium pyrophosphate. After being washed overnight at 4° C., the paper cuttings are dried and counted, measuring ^32P Cerenkov radiation. […] The EGF response for the poly(GAT) phosphorylation is graphed.

[2] = tested on: cells incubated with EGF or serum; assay: Inhibition of cell proliferation as measured by inhibition of DNA synthesis ([3H]thymidine incorporation); format: cell-based
Experimental: Cells were seeded at 1×10^5 cells per well in 24-well Costar dishes pre-coated with human fibronectin (by incubating for 30 minutes at room temperature with 10 μg/0.5 ml/well). The cells were grown to confluence for 2 days. The medium was changed to DMEM containing 0.5 calf serum for 36-48 hours and the cells were then incubated with EGF (Toyobo, New York, N.Y.) (20 ng/ml) or serum (10% calf serum) and different concentrations of the inhibitory compounds. […] TCA precipitable material was quantitated by scintillation counting (C). […]
Cells termed HER 14 and K721A (=DK) were prepared by transfecting NIH3T3 cells (clone 2.2) (From C. Fryling, NCI, NIH), which lack endogenous EGF-receptors, with cDNA constructs of wild-type EGF-receptor or mutant EGF-receptor lacking tyrosine kinase activity (in which Lys 721 at the ATP-binding site was replaced by an Ala residue, respectively). All cells were grown in DMEM with 10% calf serum (Hyclone, Logan, Utah).

[3] = target: T1, EGF receptor; conditions: membranes of A431 cells; reported; cited from earlier work
[4] = [3H]thymidine incorporation halved, cells stimulated with EGF (20 ng/ml), read-out: IC50 - EGF
[5] = [3H]thymidine incorporation halved, cells stimulated with serum (10% calf serum), read-out: IC50 - FCS

T1 sequence (P00533 25-1210): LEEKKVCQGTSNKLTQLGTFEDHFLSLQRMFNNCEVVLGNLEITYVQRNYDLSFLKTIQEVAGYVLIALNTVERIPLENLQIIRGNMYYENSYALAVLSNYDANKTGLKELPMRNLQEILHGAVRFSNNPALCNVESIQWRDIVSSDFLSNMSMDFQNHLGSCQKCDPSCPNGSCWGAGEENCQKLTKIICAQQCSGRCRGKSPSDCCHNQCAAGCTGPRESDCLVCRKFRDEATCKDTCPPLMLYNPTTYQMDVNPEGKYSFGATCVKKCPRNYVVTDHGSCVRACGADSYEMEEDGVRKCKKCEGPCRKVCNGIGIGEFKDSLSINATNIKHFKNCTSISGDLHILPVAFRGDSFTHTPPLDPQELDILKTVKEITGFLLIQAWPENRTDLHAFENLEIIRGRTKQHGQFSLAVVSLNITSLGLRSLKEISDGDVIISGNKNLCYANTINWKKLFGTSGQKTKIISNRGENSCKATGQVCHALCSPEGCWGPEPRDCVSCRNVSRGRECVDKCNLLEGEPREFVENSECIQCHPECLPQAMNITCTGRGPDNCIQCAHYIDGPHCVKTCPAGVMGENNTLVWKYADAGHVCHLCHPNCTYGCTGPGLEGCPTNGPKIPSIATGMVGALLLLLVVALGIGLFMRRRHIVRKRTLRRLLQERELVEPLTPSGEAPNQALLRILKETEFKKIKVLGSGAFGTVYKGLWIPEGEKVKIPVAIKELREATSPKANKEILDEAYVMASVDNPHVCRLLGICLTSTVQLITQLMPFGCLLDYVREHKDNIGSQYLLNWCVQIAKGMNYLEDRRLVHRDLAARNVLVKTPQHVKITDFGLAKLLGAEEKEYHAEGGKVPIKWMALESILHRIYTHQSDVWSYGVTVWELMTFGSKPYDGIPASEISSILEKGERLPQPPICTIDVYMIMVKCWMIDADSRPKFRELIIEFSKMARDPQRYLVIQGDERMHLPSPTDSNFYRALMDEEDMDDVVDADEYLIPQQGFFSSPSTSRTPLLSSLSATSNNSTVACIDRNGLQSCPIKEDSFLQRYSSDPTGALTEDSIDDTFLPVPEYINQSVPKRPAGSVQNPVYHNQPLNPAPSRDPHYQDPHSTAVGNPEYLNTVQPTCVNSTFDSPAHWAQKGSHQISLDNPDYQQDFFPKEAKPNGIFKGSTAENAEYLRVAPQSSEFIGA

## COc1cc(C=C(C#N)C#N)cc(O)c1O [Example 2, 3-methoxy-4,5-dihydroxybenzylidene malononitrile]
[1]
  Ki: 2.2 ± 0.3 µM

## CC(C)(C)c1cc(C=C(C#N)C#N)cc(C(C)(C)C)c1O [Example 3, 3,5-di-tert butyl-4-hydroxybenzylidene malononitrile]
[2]; read-out: IC50 - EGF
  IC50: 0.1 µM
[2]; read-out: IC50 - FCS
  IC50: 0.2 µM

## N#CC(C#N)=C(O)c1cc(O)c(O)c(O)c1 [Example 5, α-Hydroxy-3,4,5-trihydroxybenzylidene malononitrile]
[1]
  Ki: 4.5 µM

## N#CC(=Cc1ccc(O)c(O)c1)C(N)=O [Example 6, α-Cyano-3,4-dihydroxycinnamamide]
[1]
  Ki: 3.5 ± 0.6 µM

## N#CC(=Cc1ccc(O)c(O)c1)C(=O)O [Example 10, α-Cyano-3,4-dihydroxycinnamic acid]
[1]
  Ki: 23.6 µM

## N#CC(C#N)=Cc1ccc(C=O)cc1 [Example 15, 4-Formylbenzylidene malononitrile]
[1]
  Ki: 20 µM

## N#CC(=Cc1ccc(O)c(O)c1)C(=O)Nc1ccccc1 [Example 25, N-Phenyl-α-cyano-3,4-dihydroxycinnamamide]
[2]; [4]
  IC50: 30 µM
[2]; [5]
  IC50: 100 µM

## CC(C)(C)c1cc(C=C(C#N)C(N)=S)cc(C(C)(C)C)c1 [Example 26, α-Cyano-β-(3,5-di-tertbutylphenyl)propenethioamide]
[2]; [4]
  IC50: 20 µM
[2]; [5]
  IC50: 100 µM

## O=CN/C=C/c1cc(O)ccc1O [erbstatin]
[3]
  inhibition of EGF receptor autophosphorylation: inhibits the autophosphorylation of the EGF receptor
